The experiment deals with balloon-denuded rats (coronary restenosis model). Put plainly: Treatment of experimental rat model of coronary restenosis. The note with it: 0.3 mg kg^-1 docetaxel i.v. on day 0 and 5, arteries collected day 14, n=6. In kind it is in vivo, Sprague-Dawley rats. How it is done:
Sprague-Dawley rats following angioplasty-induced arterial denudation were injected intravenously with 1 mL of 5 mg mL^−1 docetaxel-loaded PNPs in 10% sucrose at a docetaxel dose of 0.3 mg kg^−1 on day 0 and day 5. As controls, animals receiving PBS, free docetaxel, and empty PNPs were prepared. On day 14, animals were euthanized with an overdose of ketamine-xylazine cocktail and perfused with PBS and 4% paraformaldehyde (PFA) at a pressure of 120-140 mm Hg. Segments of left and right carotid arteries were carefully dissected out, and the PFA-fixed carotid arteries were embedded with Tissue-Tek OCT compound (VWR International) in a tissue base mold and slowly submerged into pre-chilled 2-methyl butane until frozen completely. The frozen tissue block was then immediately stored at −80° C. until sectioning. Serial sectioning (15 μm per section) was performed with a Cyrotome cryostat machine (Leica), and the tissue sections were placed on polylysine-treated glass slides. Tissue sections on slides were dried at room temperature for 30 min before staining. For immunohistochemistry, frozen sections on slides were first washed with PBS to remove residual OCT medium and then subjected to standard hematoxylin and eosin (H&E) staining. Areas of intima and media were analyzed using Image J. Luminal obliteration is defined as the intima area/the area within the internal elastic lamina. […]

The structures appear in SMILES notation.

As to `CC(=O)O[C@@]12CO[C@@H]1C[C@H](O)[C@@]1(C)C(=O)[C@H](O)C3=C(C)[C@@H](OC(=O)[C@H](O)[C@@H](NC(=O)OC(C)(C)C)c4ccccc4)C[C@@](O)([C@@H](OC(=O)c4ccccc4)[C@H]21)C3(C)C` [free docetaxel, docetaxel], the “intima-to-media ratio (I/M)” value stood at 0.76±0.18 and the luminal obliteration was determined as 33.6%.

The values are drawn from patent US11241394B2, “Treating vasculature related diseases or disorders using nanoparticles” (The Regents of the University of California, priority 2015, dated 2022).
